Reference: patent publication US12502386B2, “Nitrogen-containing heterocyclic compound and use thereof” (SHANGHAI SHIJIANG BIOTECHNOLOGY CO., LTD, priority 2022, dated 2025)

Tests used:
NCI-H82 = assay: CellTiter-Glo cell viability, tumor cell line NCI-H82; type: cell-based; details: NCI-H82, 72 h; human small cell lung cancer cell; 3 days of culture; read-out: inhibitory effect on NCI-H82 (IC50)
Experimental: (§1) Cell viability was detected using the Promega CellTiter-Glo kit, cell viability was determined by directly measuring intracellular ATP content. In the experiment, the IC50 value of the compounds prepared in the Examples of the present invention on various tumor cell lines was detected.
(§2) Each tumor cell was cultured in relevant medium. After cell passage, the gradient diluted compounds prepared in the Examples of the present invention was added. After 3 days of culture, the relevant IC50 (50% inhibiting concentration) was measured. The name, source and culture conditions of each tumor cell line were as follows:
Cell line NCI-H82 (ATCC, No. HTB-175) was cultured in 10% fetal bovine serum-containing RPMI1640 medium (+P/S).

GB-1 = assay: CellTiter-Glo cell viability, tumor cell line GB-1; type: cell-based; details: GB-1, 72 h; human brain glioblastoma cell; 3 days of culture; read-out: inhibitory effect on GB-1 (IC50)
Experimental: as §1, §2
Cell line GB-1 (JCRB, No. IFO50489) was cultured in 10% fetal bovine serum-containing DMEM medium (+P/S).
(§3) Cell viability was detected using the Promega CellTiter-Glo kit, cell viability was determined by directly measuring intracellular ATP content. In the experiment, the IC50 value of the compounds prepared in the Examples of the present invention on various brain tumor cell lines was detected.

786-O = assay: CellTiter-Glo cell viability, tumor cell line 786-O; type: cell-based; details: Homo sapiens, 786-0, 72 h; clear cell renal cell adenocarcinoma cell; 3 days of culture; read-out: inhibitory effect on 786-O (IC50)
Experimental: as §1, §2
Cell line 786-0 (ATCC, No. CRL-1932) was cultured in 10% fetal bovine serum-containing RPMI164B medium (+P/S).

SF-126 = assay: CellTiter-Glo cell viability, tumor cell line SF-126; type: cell-based; details: SF-126, 72 h, read-out: inhibitory effect on SF-126 (IC50); human glioblastoma multiforme cell; 3 days of culture
Experimental: as §1, §2
Cell line SF126 (JCRB, No. IFO50286) was cultured in 10% fetal bovine serum-containing EMEM medium (+P/S).
as §3

ov-NNMT NCI-H82 cell = assay: CellTiter-Glo cell viability, ov-NNMT NCI-H82 cell (NNMT overexpressed); type: cell-based, human; details: Homo sapiens, NCI-H82, NCI-H82 overexpressing NNMT protein, intracellular ATP, read-out: inhibitory effect on OV-NNMT NCI-H82 (IC50)
NB-1 = assay: CellTiter-Glo cell viability, brain tumor cell line NB-1; type: cell-based; details: Homo sapiens, NB1, 72 h; brain neuroblastoma cell; 3 days of culture; read-out: inhibitory effect on NB-1 (IC50)
Experimental: as §3
as §2, with “follows: […]” for “follows:”

D341 Med = assay: CellTiter-Glo cell viability, brain tumor cell line D341 Med; type: cell-based; details: Homo sapiens, 72 h, cerebellar medulloblastoma cell, 3 days of culture, read-out: inhibitory effect on D341 Med (IC50)
Experimental: as §3, §2
Cell line D341 Med (ATCC, No. HTB-187) was cultured in 20% fetal bovine serum-containing EMEM medium (+P/S).

MDA-MB-453 = assay: CellTiter-Glo cell viability, tumor cell line MDA-MB-453; type: cell-based; details: Homo sapiens, MDA-MB-453, 72 h; breast cancer cell; 3 days of culture; read-out: inhibitory effect on MDA-MB-453 (IC50)
Experimental: as §1
as §2, with “follows: […]” for “follows:”

Con-NCI-H82 cell = assay: CellTiter-Glo cell viability, Con-NCI-H82 cell (empty-vector control); type: cell-based, human; details: Homo sapiens, NCI-H82, NCI-H82 transfected with empty virus vector (control), intracellular ATP, read-out: inhibitory effect on Con-NCI-H82 (IC50)
Kelly = assay: CellTiter-Glo cell viability, brain tumor cell line Kelly; type: cell-based; details: Homo sapiens, 72 h, brain neuroblastoma cell, 3 days of culture, read-out: inhibitory effect on Kelly (IC50)
Experimental: as §3, §2
Cell line Kelly (ECACC, No. 92110411) was cultured in 10% fetal bovine serum and 2 mM glutamine-containing RPMI1640 medium.

sh-DNMT1 NCI-H82 cell = assay: CellTiter-Glo cell viability, sh-DNMT1 NCI-H82 cell (DNMT1 knocked down); type: cell-based, human; details: Homo sapiens, NCI-H82, NCI-H82 with DNMT1 knocked down by shRNA, intracellular ATP, read-out: inhibitory effect on sh-DNMT1 NCI-H82 (IC50)
CFPAC-1 = assay: CellTiter-Glo cell viability, tumor cell line CFPAC-1; type: cell-based; details: CFPAC-1, 72 h; human pancreatic cancer cell; 3 days of culture; read-out: inhibitory effect on CFPAC-1 (IC50)
Experimental: as §1, §2
Cell line CFPAC-1 (ATCC, No. CRL-1918) was cultured in 10% fetal bovine serum-containing IMDM medium (+P/S).

G-401 = assay: CellTiter-Glo cell viability, tumor cell line G-401; type: cell-based; details: G-401, 72 h; human renal carcinoma Wilms cell; 3 days of culture; read-out: inhibitory effect on G-401 (IC50)
Experimental: as §1, §2
Cell line G-401 (ATCC, No. CRL-1441) was cultured in 10% fetal bovine serum-containing McCoy's 5a medium (+P/S).

SW48 = assay: CellTiter-Glo cell viability, tumor cell line SW48; type: cell-based; details: SW48, 72 h; human colon adenocarcinoma cell; 3 days of culture; read-out: inhibitory effect on SW48 (IC50)
Experimental: as §1, §2
Cell line SW48 (ATCC, No. CCL-231) was cultured in 10% fetal bovine serum-containing Leibovitz's L-15 medium (+P/S).

Molecule `C=CCOc1c(OC)ccc2c1C(C(Cl)(Cl)Cl)N1CCc3cc4c(cc3C1=C2)OCO4` (centres unmarked) [AB35534] has an IC50 (NCI-H82) of 1320 nM, an IC50 (GB-1) of 20200 nM and an IC50 (786-O) of 14300 nM. For the same molecule, the IC50 (SF-126) was 19000 nM, the IC50 (ov-NNMT NCI-H82 cell) was 3960 nM and the IC50 (NB-1) was 1580 nM. For the same molecule, the IC50 (D341 Med) was 3120 nM, the IC50 (MDA-MB-453) was 1880 nM and the IC50 (Con-NCI-H82 cell) was 1320 nM. For the same molecule, the IC50 (Kelly) was 2090 nM, the IC50 (sh-DNMT1 NCI-H82 cell) was 3840 nM and the IC50 (CFPAC-1) was 16900 nM. It also gave an IC50 (G-401) of 2030 nM and an IC50 (SW48) of 2450 nM.
With `CCCOc1c(OC)ccc2c1C(C(Cl)(Cl)Cl)N1CCc3cc4c(cc3C1=C2)OCO4` (centres unmarked) [AB35506] the IC50 (NCI-H82) was 830 nM, the IC50 (GB-1) was 25500 nM and the IC50 (786-O) was 10300 nM. For the same molecule, the IC50 (SF-126) was 19900 nM, the IC50 (ov-NNMT NCI-H82 cell) was 2660 nM and the IC50 (NB-1) was 3880 nM. It also gave an IC50 (D341 Med) of 1660 nM, an IC50 (MDA-MB-453) of 1560 nM and an IC50 (Con-NCI-H82 cell) of 830 nM. The IC50 (Kelly) was 3590 nM, the IC50 (sh-DNMT1 NCI-H82 cell) was 2520 nM and the IC50 (CFPAC-1) was 14100 nM. For the same molecule, the IC50 (G-401) was 1270 nM and the IC50 (SW48) was 2130 nM.
`COc1ccc2c(c1OC)C(C1CCCC1)N1CCc3cc4c(cc3C1=C2CCCc1ccccc1)OCO4` (centres unmarked) [AB35436] was tested, and the IC50 (NCI-H82) was 1270 nM, the IC50 (GB-1) was over 30000 nM and the IC50 (786-O) was 15400 nM. It also gave an IC50 (SF-126) of 22100 nM, an IC50 (ov-NNMT NCI-H82 cell) of 3280 nM and an IC50 (NB-1) of 2980 nM. The IC50 (D341 Med) was 1540 nM, the IC50 (MDA-MB-453) was 1010 nM and the IC50 (Con-NCI-H82 cell) was 1270 nM. For the same molecule, the IC50 (Kelly) was 3120 nM, the IC50 (sh-DNMT1 NCI-H82 cell) was 5320 nM and the IC50 (CFPAC-1) was 11400 nM. For the same molecule, the IC50 (G-401) was 1890 nM and the IC50 (SW48) was 1560 nM.
With `C1=C2c3cc4c(cc3CCN2C(C2CCCC2)c2c1ccc1c2OCO1)OCO4` (centres unmarked) [AB36423] the IC50 (NCI-H82) was 1850 nM, the IC50 (GB-1) was 16100 nM and the IC50 (786-O) was 22300 nM. It also gave an IC50 (SF-126) of over 30000 nM, an IC50 (ov-NNMT NCI-H82 cell) of 5110 nM and an IC50 (NB-1) of 2980 nM. It also gave an IC50 (D341 Med) of 1550 nM, an IC50 (MDA-MB-453) of 1660 nM and an IC50 (Con-NCI-H82 cell) of 1850 nM. For the same molecule, the IC50 (Kelly) was 3120 nM, the IC50 (sh-DNMT1 NCI-H82 cell) was 4980 nM and the IC50 (CFPAC-1) was 14300 nM. It also gave an IC50 (G-401) of 2320 nM and an IC50 (SW48) of 2540 nM.
`COc1ccc2c(c1OC)C(C1CCC1)N1CCc3cc4c(cc3C1=C2)OCO4` (centres unmarked) [AB36447] showed an IC50 (NCI-H82) of 2020 nM, an IC50 (GB-1) of 24600 nM and an IC50 (786-O) of over 30000 nM. It also gave an IC50 (SF-126) of over 30000 nM, an IC50 (ov-NNMT NCI-H82 cell) of 4980 nM and an IC50 (NB-1) of 2040 nM. It also gave an IC50 (D341 Med) of 2750 nM, an IC50 (MDA-MB-453) of 2120 nM and an IC50 (Con-NCI-H82 cell) of 2020 nM. The IC50 (Kelly) was 1980 nM, the IC50 (sh-DNMT1 NCI-H82 cell) was 7120 nM and the IC50 (CFPAC-1) was 20100 nM. For the same molecule, the IC50 (G-401) was 2680 nM and the IC50 (SW48) was 1960 nM.
`COc1ccc2c(c1OCCCCN)C(C)N1CCc3cc4c(cc3C1=C2)OCO4` (centres unmarked) [AB35429] showed an IC50 (NCI-H82) of 1890 nM, an IC50 (GB-1) of 18400 nM and an IC50 (786-O) of 12500 nM. It also gave an IC50 (SF-126) of 15400 nM, an IC50 (ov-NNMT NCI-H82 cell) of 5320 nM and an IC50 (NB-1) of 3450 nM. It also gave an IC50 (D341 Med) of 2020 nM, an IC50 (MDA-MB-453) of 2430 nM and an IC50 (Con-NCI-H82 cell) of 1890 nM. For the same molecule, the IC50 (Kelly) was 3160 nM, the IC50 (sh-DNMT1 NCI-H82 cell) was 5040 nM and the IC50 (CFPAC-1) was 13400 nM. It also gave an IC50 (G-401) of 2020 nM and an IC50 (SW48) of 1460 nM.
In the case of `COc1ccc2c(c1OCCCBr)C(C1CCCC1)N1CCc3cc4c(cc3C1=C2)OCO4` (centres unmarked) [AB35430], the IC50 (NCI-H82) is reported as 850 nM, the IC50 (GB-1) is reported as 16900 nM and the IC50 (786-O) is reported as 16100 nM. For the same molecule, the IC50 (SF-126) was 23400 nM, the IC50 (ov-NNMT NCI-H82 cell) was 3180 nM and the IC50 (NB-1) was 2550 nM. It also gave an IC50 (D341 Med) of 1320 nM, an IC50 (MDA-MB-453) of 960 nM and an IC50 (Con-NCI-H82 cell) of 850 nM. The IC50 (Kelly) was 2010 nM, the IC50 (sh-DNMT1 NCI-H82 cell) was 6320 nM and the IC50 (CFPAC-1) was 12100 nM. It also gave an IC50 (G-401) of 1320 nM and an IC50 (SW48) of 1560 nM.
